Results as given in patent publication US10233165B2, “Cyclopropylamine compounds as histone demethylase inhibitors” (IEO—Instituto Europeo di Oncologia S.r.l., priority 2014, dated 2019).
Counter-ions that a name gives are not always drawn. Like-named read-outs stand apart in the source and are kept apart here. Each block holds one molecule with its values, some of them ahead of it.

Legend:
Human recombinant MAO A = target: T1, Human recombinant MAO A (Homo sapiens, UniProt P21397); test: Bioluminescent-coupled assay for monoamine oxidases (MAO-Glo), MAO-A; format: biochemical; settings: for IC50 (MAO-A)/ IC50 (LSD1): ratio, 15 min preincubation of compound with enzyme
T1 construct: made in house; host or cells: Pichia pastoris
T1 sequence (P21397 1-527): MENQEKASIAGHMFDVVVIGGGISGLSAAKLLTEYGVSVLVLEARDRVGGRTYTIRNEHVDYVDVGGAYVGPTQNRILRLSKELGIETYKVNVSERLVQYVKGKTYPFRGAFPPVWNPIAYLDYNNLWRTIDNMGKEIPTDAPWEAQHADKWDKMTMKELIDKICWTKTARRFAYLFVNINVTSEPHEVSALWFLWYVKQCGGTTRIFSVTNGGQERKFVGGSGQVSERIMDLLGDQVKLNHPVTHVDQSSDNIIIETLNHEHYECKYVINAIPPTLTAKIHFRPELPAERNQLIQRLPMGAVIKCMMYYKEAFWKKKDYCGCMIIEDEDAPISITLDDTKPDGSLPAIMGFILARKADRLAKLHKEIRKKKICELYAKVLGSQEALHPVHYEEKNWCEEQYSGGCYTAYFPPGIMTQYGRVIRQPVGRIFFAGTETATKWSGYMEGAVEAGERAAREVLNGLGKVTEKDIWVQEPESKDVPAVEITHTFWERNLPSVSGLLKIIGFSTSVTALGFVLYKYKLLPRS
Method: The MAO-Glo Assay from Promega (cat. V1402, Promega, Madison, Wis.) was used to measure the effect of inhibitors on MAO-A and MAO-B activity.
Human recombinant MAO A and MAO B were expressed in Pichia pastoris and purified as published (Binda C. et al. Proc. Natl. Acad. Sci. USA, 2003, 9750-9755). The assay was performed at RT in 50 μL (25 μL reaction solution+25 μL detection reagent) in 96 well half area white plates (cat. 3693, Corning, Corning, N.Y.). Luminescence was measured after 20 min incubation in the dark using a microplate reader (Infinite F200, Tecan Group, Switzerland) with an integration time of 0.25 s per well.
50 nM MAO-A or 125 nM MAO-B were incubated with five different inhibitor concentrations (from 0.004 μM to 100 μM) for 15 min at RT in Promega MAO Buffer or Promega MAO-B Buffer (MAO-Glo Assay kit, catalogue number V1402, Promega, Madison, Wis.). […] After 30 min of incubation the reaction was stopped with the Promega detection reagent. The experiments were carried out in duplicate. IC50 was calculated using GraphPad Prism version 4.0 (GraphPad Software, San Diego, Calif.).

CD14 mRNA in THP-1 cells [1] = test: THP-1 target modulation, CD14 mRNA by quantitative RT-PCR; format: cell-based, human; settings: 0.1 μM inhibitor, 5 days, normalized against TBP mRNA
Method: (§1) For this scope THP-1 cells (ACC 16: DSMZ Leibniz Institute DSMZ German collection of Microorganism and cell culture) were plated at cellular density of 50.000 cells/mL and were incubated with the inhibitor at a fixed concentration of 0.1 μM for 5 days. Then, the cells were recovered and mRNA extracted to follow mRNA levels of the macrophage-specific genes CD14. mRNA expression was measured by quantitative RT-PCR (Fast SYBR Green Master mix, Applied Biosystems Foster City, Calif.) using specific primers and normalized against TBP mRNA. […] Primers used in this study were: […]

human THP-1 cells = test: THP-1 methylcellulose assay, colony formation; format: cell-based; settings: 500 nM inhibitor, 13 days, versus vehicle; for inhibition at 0.5 µM: Homo sapiens, THP-1, 312 h
Method: The KDM1A inhibitors were tested for their anti-clonogenic potential on human THP-1 cells (ACC 16: DSMZ Leibniz Institute DSMZ German collection of Microorganism and cell culture).
(§2) THP-1 cells were plated at a density of 250 cells per plate and cultured with the inhibitors at a fixed dose of 500 nM in MethoCult™ H4435 Enriched medium (StemCell Technologies, Vancouver, BC) for 13 days according to the manufacturer instructions. Then, the colony forming potential was scored by direct visualization using an inverted microscope and the percentage of inhibition over the vehicle was assessed. In addition, the cells were harvested and compounds-induced maturation was monitored by changes in the mRNA levels of macrophage-specific genes (CD14) as reported above.

[2] = tested on: Human leukemia MV4-11 cells; test: Cell growth, CellTiter-Fluor viability assay; format: cell-based; settings: 48 h incubation, read-out: IC50 [μM] cell growth inhibitory assay
From the text: CellTiter-Flor® (Promega) is a nonlytic, single-reagent-addition fluorescence assay that measures the relative number of living cells in a culture population after experimental manipulation. The CellTiter-Fluor™ Cell Viability Assay measures the conserved and constitutive protease activity within live cells and therefore acts as a marker for cell viability.
Human leukemia MV4-11 cells, (obtained from the Deutsche Sammlung von Mikroorganismen and Zellkulturen, ACC 102) in exponential growth, were incubated for 48 h with different concentrations of the inhibitors (e.g. from 0 to 100 μM). After 48 h a volume of CellTiterFluor® Reagent equal to the volume of cell culture medium was added. The content was mixed and incubates for at least 90 min at 37° C. degree to obtain a stable signal. The fluorescence was recorded using an excitation wavelength of 360 nm and an emission at 535 nm. The IC50 was calculated using GraphPad Software.

CD14 mRNA in THP-1 cells [3] = test: THP-1 methylcellulose assay, CD14 mRNA in harvested cells; format: cell-based, human; settings: THP-1 cells harvested from methylcellulose, 500 nM inhibitor, 13 days
Method: as §1, §2

[4] = target: T2, human recombinant KDM1A (LSD1)/CoRest complex (Homo sapiens, UniProt O60341); test: Assay of enzyme inhibition of KDM1A (LSD1), Amplex UltraRed/peroxidase; format: biochemical; settings: result in words
T2 construct: made in house; host or cells: E. coli
Method: The complex of human recombinant KDM1A (LSD1)/CoRest protein was produced in E. coli as separate proteins and co-purified following previously reported procedures (Forneris F. et al. Trends Biochem. Sci. 2008, 33, 181-189; Forneris F. et al. J. Biol. Chem. 2007, 282, 20070-20074). The experiments were performed using a mono-methylated H3-K4 peptide containing 21 amino acids (custom synthesis done by Thermo Scientific) as substrate and in 50 mM TRIS, pH 8.0 and 0.05 mg/ml BSA. The peptide purity was >90% as checked by analytical high-pressure liquid chromatography and mass spectrometry.
The demethylase activity was estimated under aerobic conditions and at RT by measuring the release of H2O2 produced during the catalytic process by the Amplex® UltraRed detection system coupled with peroxidase assay. […] The conversion of the Amplex® Ultra Red reagent to resorufin was monitored in continuous by fluorescence (excitation at 540 nm, emission at 590 nm) using a microplate reader (Infinite 200, Tecan). […] The maximum demethylase activity of KDM1A/CoRest was obtained in the absence of inhibitors and corrected for background fluorescence in the absence of KDM1A/CoRest. The IC50 was calculated using GraphPad Software.

Structure (SMILES): N[C@@H]1C[C@H]1c1ccc(NC(=O)c2cccc(N3CCOC3=O)c2)cc1 (relative stereo) [Example 3, N-[4-[trans-2-aminocyclopropyl]phenyl]-3-(2-oxooxazolidin-3-yl)benzamide hydrochloride]
IC50 (MAO-A)/ IC50 (LSD1) (Human recombinant MAO A; hydrochloride): 3.30
Target modulation CD14 mRNA expression (fold increase versus vehicle) (CD14 mRNA in THP-1 cells [1]; hydrochloride): 21.2 fold increase versus vehicle
inhibition at 0.5 µM (human THP-1 cells): 41%
IC50 ([2]; Homo sapiens): ≤ 5 µM
Colony formation Target Modulation CD14 mRNA expression (Fold increase) (CD14 mRNA in THP-1 cells [3]; hydrochloride): 24.8 Fold increase

IC50 ([2]; Homo sapiens): 5 to 50 µM
Structure (SMILES): N[C@@H]1C[C@H]1c1ccc(NC(=O)c2ccc(N3CCOCC3)cc2)cc1 (relative stereo) [Example 4, N-[4-[trans-2-aminocyclopropyl]phenyl]-4-morpholino-benzamide Hydrochloride]

IC50 ([2]; Homo sapiens): 5 to 50 µM
Structure (SMILES): N[C@@H]1C[C@H]1c1ccc(NC(=O)c2ccc(N3CCOC3=O)cc2)cc1 (relative stereo) [Example 5, N-[4-[trans-2-aminocyclopropyl]phenyl]-4-(2-oxooxazolidin-3-yl)benzamide Hydrochloride]

IC50 (MAO-A)/ IC50 (LSD1) (Human recombinant MAO A): 1.56
IC50 ([2]; Homo sapiens): 50 to 100 µM
Structure (SMILES): N[C@@H]1C[C@H]1c1ccc(NC(=O)c2ccccc2)cc1 (relative stereo) [Example 5b, N-[4-[trans-2-aminocyclopropyl]phenyl]benzamide, reference compound]

Structure (SMILES): N[C@@H]1C[C@H]1c1ccc(NC(=O)c2ccc(-c3ccccc3)cc2)cc1 (relative stereo) [Example 5e, N-[4-[trans-2-aminocyclopropyl]phenyl]-4-phenyl-benzamide, reference compound]
IC50 (Human recombinant MAO A; 50 nM MAO-A, 15 min preincubation, read-out: MAO-A inhibition IC50): 0.054 µM
Target modulation CD14 mRNA expression (fold increase versus vehicle) (CD14 mRNA in THP-1 cells [1]): 2.2 fold increase versus vehicle
activity on KDM1A (LSD1) [4]: inactive
IC50 ([2]; Homo sapiens): ≤ 5 µM

Structure (SMILES): CN1CCN(c2cc(C(=O)Nc3ccc([C@@H]4C[C@H]4N)cc3)ccc2NC(=O)OCc2ccccc2)CC1 (relative stereo) [Example 6, Benzyl N-[4-[[4-[trans-2-aminocyclopropyl]phenyl]carbamoyl]-2-(4-methylpiperazin-1-yl)phenyl]carbamate Dihydrochloride]
IC50 (MAO-A)/ IC50 (LSD1) (Human recombinant MAO A): 15.3
Target modulation CD14 mRNA expression (fold increase versus vehicle) (CD14 mRNA in THP-1 cells [1]): 13 fold increase versus vehicle
IC50 ([2]; Homo sapiens): ≤ 5 µM

IC50 (MAO-A)/ IC50 (LSD1) (Human recombinant MAO A): 11.2
IC50 ([2]; Homo sapiens): ≤ 5 µM
Structure (SMILES): CN1CCN(c2ccc(C(=O)Nc3ccc([C@@H]4C[C@H]4N)cc3)cc2NC(=O)OCc2ccccc2)CC1 (relative stereo) [Example 7, Benzyl N-[5-[[4-[(trans-2-aminocyclopropyl]phenyl]carbamoyl]-2-(4-methylpiperazin-1-yl)phenyl]carbamate Dihydrochloride]

IC50 ([2]; Homo sapiens): ≤ 5 µM
Structure (SMILES): N[C@@H]1C[C@H]1c1ccc(NC(=O)c2ccc(N3CCCCC3)c(NC(=O)OCc3ccccc3)c2)cc1 (relative stereo) [Example 8, Benzyl N-[5-[[4-[trans-2-aminocyclopropyl]phenyl]carbamoyl]-2-(1-piperidyl)phenyl]carbamate Hydrochloride]

Structure (SMILES): N[C@@H]1C[C@H]1c1ccc(NC(=O)c2ccc(N3CCOCC3)c(NC(=O)OCc3ccccc3)c2)cc1 (relative stereo) [Example 9, Benzyl N-[5-[[4-[trans-2-aminocyclopropyl]phenyl]carbamoyl]-2-morpholino-phenyl]carbamate hydrochloride]
IC50 (MAO-A)/ IC50 (LSD1) (Human recombinant MAO A): 3.17
IC50 ([2]; Homo sapiens): ≤ 5 µM

Structure (SMILES): N[C@@H]1C[C@H]1c1ccc(NC(=O)c2cccc(N3CCOC3=O)c2)cc1 [Example 11, N-[4-[(1S,2R)-2-aminocyclopropyl]phenyl]-3-(2-oxooxazolidin-3-yl)benzamide Hydrochloride]
IC50 (MAO-A)/ IC50 (LSD1) (Human recombinant MAO A; hydrochloride): 5.93
Target modulation CD14 mRNA expression (fold increase versus vehicle) (CD14 mRNA in THP-1 cells [1]; hydrochloride): 15.1 fold increase versus vehicle
Colony formation % of Inhibition (human THP-1 cells; Hydrochloride, 0.5 µM): 36.3%
IC50 [2]: ≤ 5 µM
Colony formation Target Modulation CD14 mRNA expression (Fold increase) (CD14 mRNA in THP-1 cells [3]; hydrochloride): 27.7 Fold increase

Structure (SMILES): N[C@H]1C[C@@H]1c1ccc(NC(=O)c2cccc(N3CCOC3=O)c2)cc1 [Example 13, N-[4-[(1R,2S)-2-aminocyclopropyl]phenyl]-3-(2-oxooxazolidin-3-yl)benzamide Hydrochloride]
IC50 (MAO-A)/ IC50 (LSD1) (Human recombinant MAO A): 2.67
Target modulation CD14 mRNA expression (fold increase versus vehicle) (CD14 mRNA in THP-1 cells [1]): 3.1 fold increase versus vehicle
inhibition at 0.5 µM (human THP-1 cells): 19%
IC50 ([2]; Homo sapiens): ≤ 5 µM
Colony formation Target Modulation CD14 mRNA expression (Fold increase) (CD14 mRNA in THP-1 cells [3]): 6 Fold increase
